Consider one compound from ChEMBL document CHEMBL4673406, “Discovery and Preclinical Evaluation of BMS-986242, a Potent, Selective Inhibitor of Indoleamine-2,3-dioxygenase 1” (ACS Med Chem Lett, 2021).

Usually half-life stands for the time needed for the level to fall by half in the phase considered. The IC50 is the concentration needed to halve the response being measured. As usually defined, the share remaining is what is left of the initial amount, in per cent. The inhibition is the share of the control response that was lost under treatment. A word on the AUC: it is concentration integrated over time. What is called bioavailability is the share of a dose that reaches the circulation, judged against a reference dose that is usually intravenous.

The nature of data set [1]: Metabolic stability in cynomolgus monkey hepatocytes assessed as UGT-mediated compound glucuronidation by measuring half life. Format: ADME, cell-based, Macaca fascicularis, Hepatocyte.
Data set [2] addresses T1, Cytochrome P450 2C8 (Homo sapiens, UniProt P10632).
T1 sequence (P10632 whole entry): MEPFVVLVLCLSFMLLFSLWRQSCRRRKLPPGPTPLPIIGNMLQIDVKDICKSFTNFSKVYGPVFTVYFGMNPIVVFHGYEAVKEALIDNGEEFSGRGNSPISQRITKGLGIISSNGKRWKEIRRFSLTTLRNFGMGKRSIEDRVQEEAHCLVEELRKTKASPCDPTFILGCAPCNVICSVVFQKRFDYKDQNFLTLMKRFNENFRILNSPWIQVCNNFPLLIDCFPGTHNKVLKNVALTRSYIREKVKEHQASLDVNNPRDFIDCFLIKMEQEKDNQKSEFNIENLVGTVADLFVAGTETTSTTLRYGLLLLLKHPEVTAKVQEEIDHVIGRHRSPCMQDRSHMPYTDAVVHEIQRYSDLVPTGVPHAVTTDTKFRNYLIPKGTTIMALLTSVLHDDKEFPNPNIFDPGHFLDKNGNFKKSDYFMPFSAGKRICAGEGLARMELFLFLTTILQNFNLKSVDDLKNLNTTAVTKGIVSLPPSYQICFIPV
As to the kind of experiment: Inhibition of human CYP2C8. Format: ADME.

Data set [3] is described as follows: Permeability across apical to basal side in human Caco-2 cells. Format: ADME, cell-based. The following applies: read-out: permeability. On the technique in general: Caco-2 monolayers are a common model of the intestinal barrier.
Data set [4] addresses Cytochrome P450 2C19 (Homo sapiens, UniProt P33261). As to the kind of experiment: Inhibition of human CYP2C19. In kind it is ADME.
Data set [5] is described as follows: in vitro. The following applies: mouse, liver microsomes. A general note: Liver microsomes are a subcellular fraction often used to study metabolism.
Description: Metabolic stability in mouse liver microsomes assessed as parent compound remaining at 0.5 uM measured after 10 mins
Data set [6] is described as follows: Permeability across basal to apical side in human Caco-2 cells. The following applies: read-out: permeability. Format: ADME, cell-based.
Data set [7] addresses UDP-glucuronosyltransferases (UGTs) (Homo sapiens, UniProt O60656+O75310+O75795+P06133+P0DTE4+P0DTE5+P16662+P19224+P22309+P22310+P35503+P35504+P36537+P54855+Q6UWM9+Q9BY64+Q9HAW7+Q9HAW8+Q9HAW9). As to the kind of experiment: Metabolic stability in human hepatocytes assessed as UGT-mediated compound glucuronidation by measuring half life. Format: ADME, cell-based, Hepatocyte.

In data set [8] the target is Indoleamine 2,3-dioxygenase 1 (Mus musculus) (UniProt P28776). Put plainly: In vivo inhibition of IDO1 in nu/nu mouse xenografted with human SK-OV-3 cells assessed as reduction in kynurenine level at 3 mg/kg, po qd by HPLC-MS/MS analysis relative to control. In kind it is functional, organism-based. (Xenograft models place foreign cells or tissue in a host animal.)
A short description of data set [9]: AUC in cynomolgus monkey at 1 mg/kg, iv. In kind it is ADME, organism-based, Macaca fascicularis. Further details: dose 1 mg/kg. To be noted: in vivo.
A short description of data set [10]: Oral bioavailability in dog at 5 mg/kg. Format: ADME, organism-based, Canis lupus familiaris. To be noted: in vivo.
Data set [11] in a line: Oral bioavailability in cynomolgus monkey at 5 mg/kg. Format: ADME, organism-based, Macaca fascicularis. The following applies: in vivo.
Data set [12] deals with CYP450 (Homo sapiens, UniProt P04798+P05177+P05181+P08684+P10632+P10635+P11509+P11712+P13584+P20813+P20815+P20853+P24462+P24903+P33260+P33261+P51589+P78329+P98187+Q02928+Q08477+Q16678+Q16696+Q5TCH4+Q6VVX0+Q7Z449+Q8TAV3+Q96SQ9+Q9HB55). Put plainly: Inhibition of human CYP450. Format: ADME, protein assay.
Data set [13] in a line: Inhibition of calcium channel (unknown origin) by patch clamp method. Further details: species or system Homo sapiens.
Data set [14] has as its target Indoleamine 2,3-dioxygenase 1 (Homo sapiens, UniProt P14902). As to the kind of experiment: Inhibition of IDO1 in IFNgamma-stimulated human HeLa cells preincubated for 2 hrs followed by IFNgamma stimulation and measured after 18 hrs by.

Sequence of Cytochrome P450 2C19 (P33261 whole entry): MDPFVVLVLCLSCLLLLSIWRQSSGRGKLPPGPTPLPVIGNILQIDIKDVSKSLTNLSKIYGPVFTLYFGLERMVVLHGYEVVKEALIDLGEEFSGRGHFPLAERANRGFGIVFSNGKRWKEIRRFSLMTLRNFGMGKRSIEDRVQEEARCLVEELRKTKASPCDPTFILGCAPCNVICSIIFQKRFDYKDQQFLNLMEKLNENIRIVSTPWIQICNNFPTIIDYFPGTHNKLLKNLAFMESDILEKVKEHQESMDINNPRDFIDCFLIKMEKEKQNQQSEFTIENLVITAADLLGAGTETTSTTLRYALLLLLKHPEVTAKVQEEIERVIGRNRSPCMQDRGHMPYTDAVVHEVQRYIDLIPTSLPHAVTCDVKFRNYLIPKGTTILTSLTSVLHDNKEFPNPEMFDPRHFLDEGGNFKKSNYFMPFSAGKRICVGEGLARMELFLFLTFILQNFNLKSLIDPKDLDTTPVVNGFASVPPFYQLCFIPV
Sequence of Indoleamine 2,3-dioxygenase 1 (P14902 whole entry): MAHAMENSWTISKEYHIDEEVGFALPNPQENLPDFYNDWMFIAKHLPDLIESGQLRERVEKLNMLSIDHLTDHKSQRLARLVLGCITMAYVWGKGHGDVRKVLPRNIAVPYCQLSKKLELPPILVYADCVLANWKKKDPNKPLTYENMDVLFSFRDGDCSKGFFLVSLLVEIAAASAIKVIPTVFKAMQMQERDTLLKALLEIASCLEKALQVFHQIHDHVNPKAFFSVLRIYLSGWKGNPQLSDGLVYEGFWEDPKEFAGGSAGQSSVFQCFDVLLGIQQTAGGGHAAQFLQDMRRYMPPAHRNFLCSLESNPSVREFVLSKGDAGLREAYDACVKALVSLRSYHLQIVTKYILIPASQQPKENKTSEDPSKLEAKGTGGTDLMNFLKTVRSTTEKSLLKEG
Sequence of Indoleamine 2,3-dioxygenase 1 (Mus musculus) (P28776 whole entry, looked up): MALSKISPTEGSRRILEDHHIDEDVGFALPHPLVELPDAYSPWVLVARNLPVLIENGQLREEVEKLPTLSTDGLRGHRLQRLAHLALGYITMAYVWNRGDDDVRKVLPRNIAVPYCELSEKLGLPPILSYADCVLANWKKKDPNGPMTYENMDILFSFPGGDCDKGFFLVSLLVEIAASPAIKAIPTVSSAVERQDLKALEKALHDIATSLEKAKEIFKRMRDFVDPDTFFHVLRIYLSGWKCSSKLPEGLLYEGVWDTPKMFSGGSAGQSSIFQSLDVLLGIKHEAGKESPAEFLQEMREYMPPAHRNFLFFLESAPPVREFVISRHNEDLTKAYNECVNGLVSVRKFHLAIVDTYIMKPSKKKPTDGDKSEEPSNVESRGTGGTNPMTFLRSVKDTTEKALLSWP

Take `C[C@@H](NC(=O)c1ccc(Cl)cc1)[C@H]1CC[C@@H](c2ccnc3ccc(F)cc32)CC1`: the half-life in [1] was more than 2 h; in data set [7], 2 h. In addition, the half-inhibitory concentration (IC50) was 1390 nM in [2]; 3370 nM in data set [4]; more than 15000 nM in data set [12]; more than 25000 nM in data set [13]; 2 nM in [14]. Moreover, the Papp A→B in data set [3] came out at 8.8 ×10⁻⁶ cm/s. In addition, the share remaining at 10 min, 0.5 µM in data set [5] stood at 21%. The Papp B→A in data set [6] is 5.5 ×10⁻⁶ cm/s. Also, the inhibition in data set [8] was determined as 45%. This compound came in with an exposure (AUC) in data set [9] of 3.4 µM·h. Also, the bioavailability came out at 39% in [10] and 42% in data set [11].
